In ChEMBL document CHEMBL4346733, “Evaluation of amidoxime derivatives as prodrug candidates of potent bis-cationic antimalarials” (Bioorg Med Chem Lett, 2019):
Active and inactive are the calls of the source. The rule behind the calls is not given here.

What was measured:
[1] = test system: Plasmodium vinckei petteri; test: Antimalarial activity against Plasmodium vinckei petteri 279BY infected in Swiss mouse assessed as reduction in parasitemia administered once daily via intraperitoneal route starting from day 1 to day 4 post infection measured on day 5 Giemsa staining based flow cytometric analysis; assay type: functional; conditions: ip
[2] = test system: Plasmodium vinckei petteri; test: Antimalarial activity against Plasmodium vinckei petteri 279BY infected in Swiss mouse assessed as reduction in parasitemia administered once daily via oral gavage starting from day 1 to day 4 post infection measured on day 5 Giemsa staining based flow cytometric analysis; assay type: functional
[3] = test system: Plasmodium falciparum; test: Antimalarial activity against chloroquine-sensitive Plasmodium falciparum Nigerian infected in human blood after 48 hrs by [3H]-hypoxanthine incorporation assay; assay type: functional, organism-based
[4] = Retention time of compound in human liver microsomes at 0.5 mM after 2 hrs HPLC-UV analysis; assay type: ADME, Microsome; conditions: 500 µM
[5] = Drug metabolism in human liver microsomes assessed as monoamidine-1 formation by measuring retention time of metabolite at 0.5 mM after 2 hrs by HPLC-UV analysis; assay type: ADME, Microsome; conditions: 500 µM
[6] = Drug metabolism in human liver microsomes assessed as 1-(4-Amidinophenoxy)-8-amidinooctane dihydrochloride formation by measuring retention time of metabolite at 0.5 mM after 2 hrs by HPLC-UV analysis; assay type: ADME, Microsome; conditions: 500 µM
[7] = Drug metabolism in human liver microsomes assessed as disappearance of parent compound at 0.5 mM after 2 hrs by HPLC-UV analysis; assay type: ADME, Microsome; conditions: read-out: Drug metabolism
[8] = Retention time of compound at 0.05 mg/ml by HPLC analysis; assay type: physicochemical
[9] = Stability of compound in human plasma at 1000 ug/ml up to 120 mins by HPLC-UV analysis; assay type: ADME, cell-free; conditions: 2 h
[10] = Stability of compound in human blood at 1000 ug/ml up to 120 mins by HPLC-UV analysis; assay type: ADME, tissue-based; conditions: 2 h
[11] = test system: Plasmodium vinckei petteri; test: (§1) Antimalarial activity against Plasmodium vinckei petteri 279BY infected in Swiss mouse assessed as reduction in parasitemia at 20 mg/kg, ip once daily for 4 consecutive days starting from day 1 to day 4 post infection and measured on day 5 Giemsa staining based flow cytometric analysis; assay type: functional, organism-based
[12] = test system: Plasmodium vinckei petteri; test: as §1, with “dosed intraperitoneally” for “20 mg/kg, ip”, “28 by” for “5”; assay type: functional; parameters: scale not given: the % may be the effect or the level left
[13] = test system: Plasmodium vinckei petteri; test: Selectivity index, ratio of ED50 for antimalarial activity against Plasmodium vinckei petteri 279BY infected in Swiss mouse administered via intraperitoneal route to ED50 for antimalarial activity against Plasmodium vinckei petteri 279BY infected in Swiss mouse administered via oral route; assay type: functional
[14] = Drug metabolism in human liver microsomes assessed as 1-(4-N-pyrrolidinylamidinophenoxy)-8-N-pyrrolidinylamidinooctane dihydrochloride formation by measuring retention time of metabolite at 0.5 mM after 2 hrs by LC-MS analysis; assay type: ADME, Microsome; conditions: 500 µM
[15] = test system: Plasmodium falciparum; test: Antimalarial activity against chloroquine-sensitive Plasmodium falciparum Nigerian after 48 hrs by [3H]-hypoxanthine incorporation assay; assay type: functional, organism-based
[16] = Drug metabolism in human liver microsomes assessed as 1-(4-N-isopropylamidinophenoxy)-8-N-isopropylamidinooctane dihydrochloride formation by measuring retention time of metabolite at 0.5 mM after 2 hrs by HPLC-UV analysis; assay type: ADME, Microsome; conditions: 500 µM
[17] = Drug metabolism in human liver microsomes assessed as 1-(4-N-isopropylamidinophenoxy)-8-N-isopropylamidinooctane dihydrochloride formation by measuring disappearance of parent compound at 0.5 mM after 2 hrs by HPLC-UV analysis; assay type: ADME, Microsome; conditions: 500 µM

Row | SMILES | IC50 [3] | Retention_time [8] | ED50 [1] | ED50 [2] | also measured
1 | CO/N=C(\NCCCCCCCCCCCCN/C(=N\OC)c1ccc(OC)c(OC)c1)c1ccc(OC)c(OC)c1 |  |  | > 20 mg/kg | > 90 mg/kg | 
2 | Cl.Cl.N=C(CCCCCCCCOc1ccc(C(=N)N2CCCC2)cc1)N1CCCC1 | 16 nM | 11.8 min | 1.4 mg/kg | 51 mg/kg | 
3 | CCN(CC)CCCC(C)Nc1ccnc2cc(Cl)ccc12 (centres undefined) [CHLOROQUINE] |  |  | 1.1 mg/kg | 3.4 mg/kg | 
4 | Cc1c(CCO)sc[n+]1CCCCCCCCCCCCC(=N)N |  |  |  |  | IC50 [15]: 2.2 nM
5 | Cc1c(CCO)sc[n+]1CCCCCCCCCCCC/C(N)=N/O.[Br-] | 240 nM |  | 20 mg/kg | > 180 mg/kg | 
6 | COc1ccc(/C(=N/O)NCCCCCCCCCCCCN/C(=N\O)c2ccc(OC)c(OC)c2)cc1OC |  |  | 9.1 mg/kg | > 90 mg/kg | 
7 | O/N=C(\NCCCCCCCCCCCCN/C(=N\O)c1ccccc1)c1ccccc1 |  |  | > 20 mg/kg | > 90 mg/kg | 
8 | COc1cccc(/C(=N/O)NCCCCCCCCCCCCN/C(=N\O)c2cccc(OC)c2)c1 |  |  | > 20 mg/kg | > 90 mg/kg | 
9 | N=C(N)c1ccc(OCCCCCOc2ccc(C(=N)N)cc2)cc1 [PENTAMIDINE] |  | 25.4 min |  |  | Retention_time [4]: 25.1 min; metabolised at 2 h, 500 µM [7]: 82%
10 | CO/N=C(\NCCCCCCCCCCCCN/C(=N\OC)c1ccccc1)c1ccccc1 |  |  | > 20 mg/kg | > 90 mg/kg | 
11 | CO/N=C(\NCCCCCCCCCCCCN/C(=N\OC)c1cccc(OC)c1)c1cccc(OC)c1 |  |  | > 20 mg/kg | > 90 mg/kg | 
12 | N/C(=N\O)c1ccc(OCCCCCOc2ccc(/C(N)=N/O)cc2)cc1 [PENTAMIDINE DAO] |  | 22.3 min |  |  | Retention_time [4]: 29 min; metabolised at 2 h, 500 µM [7]: 3%; Stability [9]: Stable; Stability [10]: Stable
13 | C[C@H]1[C@H](OC(=O)CCC(=O)O)O[C@@H]2O[C@@]3(C)CC[C@H]4[C@H](C)CC[C@@H]1[C@@]24OO3 [ARTESUNATE] |  |  | 1.2 mg/kg |  | 

The next lines start with results.

Row | IC50 [3] | Retention_time [8] | SMILES | ED50 [1] | ED50 [2] | also measured
14 | 2000 nM | 11.5 min | Br.Br.N/C(=N\O)c1ccc(OCCCCCCCC/C(N)=N\O)cc1 | > 10 mg/kg | > 180 mg/kg | Retention_time [4]: 15.6 min; Retention_time [5]: 16.5 min; Retention_time [6]: 17.3 min; metabolised at 2 h, 500 µM [7]: 7%; Stability [9]: Stable; Stability [10]: Stable
15 | 360 nM |  | Cc1c(CCO)sc[n+]1CCCCCCCCOc1ccc(/C(N)=N/O)cc1.[Br-] | > 20 mg/kg | 85 mg/kg | Activity [11]: inactive; Activity [12]: 100%; Ratio ED50 [13]: >0.23
16 | 315 nM |  | Cc1c(CCO)sc[n+]1CCCCCCCCCCCOc1ccc(/C(N)=N/O)cc1.[Br-] | > 20 mg/kg | > 90 mg/kg | 
17 | 530 nM |  | COCCc1sc[n+](CCCCCCCCCCCOc2ccc(/C(N)=N/O)cc2)c1C.[Br-] | 8.8 mg/kg | > 90 mg/kg | 
18 |  | 12.6 min | Br.Br.O/N=C(/c1ccc(OCCCCCCCC/C(=N\O)N2CCCC2)cc1)N1CCCC1 | 10 mg/kg | > 100 mg/kg | Retention_time [4]: 12.3 min; Retention_time [14]: 11.8 min; metabolised at 2 h, 500 µM [7]: 14%; Stability [9]: Stable; Stability [10]: Stable
19 | 51.5 nM | 12.9 min | Cl.Cl.N=C(N)CCCCCCCCOc1ccc(C(=N)N)cc1 | 9 mg/kg | > 90 mg/kg | 
20 | 9.5 nM | 10.1 min | CC(C)NC(=N)CCCCCCCCOc1ccc(C(=N)NC(C)C)cc1.Cl.Cl | 2.8 mg/kg | 110 mg/kg | 
21 |  | 13.1 min | Br.Br.CC(C)N/C(=N\O)c1ccc(OCCCCCCCC/C(=N\O)NC(C)C)cc1 | > 20 mg/kg | > 180 mg/kg | Retention_time [4]: 13.3 min; Retention_time [5]: 12.1 min; Retention_time [16]: 10 min; metabolised at 2 h, 500 µM [7]: 6%; Drug metabolism [17]: 90%; Stability [9]: Stable; Stability [10]: Stable
22 | 195 nM |  | Cl.Cl.N=C(N)CCCCCCCCCCCOc1ccc(C(=N)N)cc1 | 2.2 mg/kg |  | 
23 | 24000 nM |  | COc1ccc(/C(=N/O)NCCCCCCCCCCCCN/C(=N\O)c2ccc(OC)cc2)cc1 | > 20 mg/kg | > 90 mg/kg | 
